In the experiment the test system is HCV. Briefly: Clinical trials, antiviral activity. The format is in vivo, Hepatitis C virus.

Each structure is given as a SMILES string.

On to `CCC[C@H](NC(=O)[C@@H]1[C@H]2CCC[C@H]2CN1C(=O)[C@@H](NC(=O)[C@@H](NC(=O)c1cnccn1)C1CCCCC1)C(C)(C)C)C(=O)C(=O)NC1CC1` [VX-950], for which the antiviral activity entry is recorded as “has shown antiviral activity”.

Source of the values: patent US20120014912A1, “PALATABLE PHARMACEUTICAL COMPOSITION” (VERTEX PHARMACEUTICALS INCORPORATED, priority 2010, published 2012).
